From patent US4587340A, “Biopterin analogs” (Burroughs Wellcome Co., priority 1984, dated 1986)
One block for each compound: values may come before it.

Columns and labels:
[1] = target: T1, Phenylalanine hydroxylase (Rattus norvegicus, UniProt P04176); test: Phenylalanine hydroxylase cofactor assay; assay type: biochemical; conditions: for Phenylalanine hydroxylase Vmax: tetrahydrobiopterin = 100
T1 construct: Phenylalanine hydroxylase was prepared from rat liver using hydrophobic chromatography; from tissue; host or cells: rat liver
T1 sequence (P04176 1-453): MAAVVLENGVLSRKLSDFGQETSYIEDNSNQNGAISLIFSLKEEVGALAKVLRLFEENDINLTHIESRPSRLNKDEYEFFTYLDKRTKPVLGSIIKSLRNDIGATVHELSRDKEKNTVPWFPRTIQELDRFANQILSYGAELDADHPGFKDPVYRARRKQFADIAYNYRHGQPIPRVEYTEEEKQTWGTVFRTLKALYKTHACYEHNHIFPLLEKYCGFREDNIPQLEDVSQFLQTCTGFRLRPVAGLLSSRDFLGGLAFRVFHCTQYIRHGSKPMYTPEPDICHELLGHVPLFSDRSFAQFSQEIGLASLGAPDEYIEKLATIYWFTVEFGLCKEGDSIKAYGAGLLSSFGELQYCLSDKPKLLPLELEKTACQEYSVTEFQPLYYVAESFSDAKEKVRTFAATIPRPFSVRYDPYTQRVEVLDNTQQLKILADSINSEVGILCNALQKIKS

Tryptophan hydroxylase = target: T2, Tryptophan hydroxylase (Rattus norvegicus, UniProt Q8CGU9); test: Tryptophan hydroxylase cofactor assay; assay type: biochemical; conditions: for Activity for tryptophan hydroxylase: in words; for Tryptophan hydroxylase Vmax: tetrahydrobiopterin = 100
T2 construct: The preparation of tryptophan hydroxylase was a crude 30,000xg supernatant; from tissue
T2 sequence (Q8CGU9 1-485): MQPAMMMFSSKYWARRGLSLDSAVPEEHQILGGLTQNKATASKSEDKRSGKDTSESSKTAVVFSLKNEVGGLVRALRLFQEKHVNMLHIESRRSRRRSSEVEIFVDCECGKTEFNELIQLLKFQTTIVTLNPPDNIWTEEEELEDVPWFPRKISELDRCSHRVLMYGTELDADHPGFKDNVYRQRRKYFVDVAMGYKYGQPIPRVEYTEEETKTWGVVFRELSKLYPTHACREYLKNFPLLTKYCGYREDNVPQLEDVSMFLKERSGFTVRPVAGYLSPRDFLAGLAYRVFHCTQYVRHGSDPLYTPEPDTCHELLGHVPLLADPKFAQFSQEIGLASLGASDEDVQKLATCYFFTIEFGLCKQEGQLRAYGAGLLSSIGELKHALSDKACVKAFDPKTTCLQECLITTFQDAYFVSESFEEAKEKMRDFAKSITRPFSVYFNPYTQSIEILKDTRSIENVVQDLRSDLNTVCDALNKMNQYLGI
Experimental: Tryptophan hydroxylase was assayed according to a modification of the method of Renson J., et al (Biochem. Biophys. Acta 25: 504 (1966)).

bovine liver DHFR = target: T3, bovine liver DHFR (Bos taurus, UniProt P00376); test: Dihydrofolate reductase assay; assay type: biochemical; conditions: for Dihydrofolate reductase V: 7,8-dihydro form of the pterin, 7,8-dihydrobiopterin = 100
T3 construct: from tissue; host or cells: bovine liver
T3 sequence (P00376 1-187): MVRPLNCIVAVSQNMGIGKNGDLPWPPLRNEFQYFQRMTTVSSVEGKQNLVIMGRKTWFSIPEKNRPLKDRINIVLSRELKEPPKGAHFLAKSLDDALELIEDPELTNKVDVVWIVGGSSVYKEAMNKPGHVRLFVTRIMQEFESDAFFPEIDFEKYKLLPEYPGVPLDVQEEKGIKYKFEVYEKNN
Experimental: These assays were carried out on the 7,8-dihydropterin analogs of the compounds of formula I which were tetrahydropterins. The 7,8-dihydropterins were obtained commercially (in the case of dihydrobiopterin) or synthesized from the corresponding compound of formula I. Synthesis of 7,8-dihydropterins involved the combination of 0.27 μmole of a compound of formula I, 20 μg of horseradish peroxidase, 0.6 μmole of hydrogen peroxide in 0.1 ml of 0.5M potassium phosphate buffer, pH 7.5. After 3 min at room temperature, 10 μg of bovine liver catalase was added. The production of the 7,8-dihydropterin was verified by U.V. spectroscopy.
The assay was carried out with bovine liver DHFR using a modification of the method of Bailey and Ayling (J. Biol. Chem., 253, 1598 (1978)) where the desired dihydropterin replaced dihydrobiopterin, and the HPLC system used consisted of an anaerobic 0.1M acetic acid (with or without 10% acetonitrite) solvent on a 25 cm×4.6 mm Dupont TMS-Zorbax column. In our hands, dihydrobiopterin is reduced at a rate 2.5% that of the natural substrate dihydrofolate.

Tyrosine hydroxylase = Tyrosine hydroxylase (Homo sapiens, UniProt P07101); test: Tyrosine hydroxylase cofactor assay; assay type: biochemical
Tyrosine hydroxylase, sequence (P07101 whole entry): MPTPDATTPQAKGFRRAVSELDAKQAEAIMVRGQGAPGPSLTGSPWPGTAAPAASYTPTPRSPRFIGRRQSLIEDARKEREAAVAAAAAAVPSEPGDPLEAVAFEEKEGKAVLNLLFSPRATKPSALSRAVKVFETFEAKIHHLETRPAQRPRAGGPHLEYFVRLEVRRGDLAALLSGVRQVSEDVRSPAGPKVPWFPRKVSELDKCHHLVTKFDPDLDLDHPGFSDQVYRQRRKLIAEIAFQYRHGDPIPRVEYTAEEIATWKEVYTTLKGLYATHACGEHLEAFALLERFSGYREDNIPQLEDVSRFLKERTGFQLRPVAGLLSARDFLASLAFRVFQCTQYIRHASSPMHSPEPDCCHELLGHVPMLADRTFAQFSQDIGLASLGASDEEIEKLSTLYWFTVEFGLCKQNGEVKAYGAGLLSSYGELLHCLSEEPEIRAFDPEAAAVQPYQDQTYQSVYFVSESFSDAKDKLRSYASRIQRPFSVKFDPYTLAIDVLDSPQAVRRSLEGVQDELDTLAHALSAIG
Experimental: Tyrosine hydroxylase was partially purified through a 25-45% ammonium sulfate fraction. […] The enzyme was assayed by a modification of the method of Nagatsu, T., Levitt, M., and Udenfriend, S. (Anal. Biochem. 9, 122, (1964)) where the Dowex chromatography step was replaced by a charcoal extraction.

[2] = target: T4, Dihydropteridine reductase (Homo sapiens, UniProt P09417); test: Dihydropteridine reductase assay; assay type: biochemical; conditions: quinonoid dihydro form; biopterin form = 100
T4 sequence (P09417 1-244): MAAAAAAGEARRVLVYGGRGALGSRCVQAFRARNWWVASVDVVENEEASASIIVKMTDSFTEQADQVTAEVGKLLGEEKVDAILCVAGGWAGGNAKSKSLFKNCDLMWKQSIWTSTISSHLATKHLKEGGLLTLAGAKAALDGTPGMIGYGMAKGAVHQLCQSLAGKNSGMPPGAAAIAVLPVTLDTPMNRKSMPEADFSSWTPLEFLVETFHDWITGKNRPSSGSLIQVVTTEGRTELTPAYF
Experimental: Dihydropteridine reductase was assayed by the method of Craine, et al., (J. Biol. Chem., 247, 6082 (1972)).

[3] = background statement; cited from earlier work
[4] = background statement; cited from earlier work; remark: listed apart in the source
[5] = tested on: striatal dopamine synthesis, noradrenaline synthesis in peripheral nerves; conditions: administration of BH4; cited from earlier work
Parkinson's disease = conditions: BH4 administration; cited from earlier work
depression = conditions: several patients; cited from earlier work
atypical PKU = conditions: large quantities; cited from earlier work

Activity for phenylalanine hydroxylase ([1]; in words): successively less active
Activity for tryptophan hydroxylase (Tryptophan hydroxylase): successively less active
Structure (SMILES): CCCCCCCCOCC1CNc2nc(N)[nH]c(=O)c2N1 (stereo not drawn) [C8 H17]

Rate of reduction by DHFR relative to dihydrofolate, the natural substrate (bovine liver DHFR; bovine liver DHFR): 2.5%
Structure (SMILES): CC(O)C(O)C1=Nc2c(nc(N)[nH]c2=O)NC1 (stereo not drawn) [7,8-Dihydrobiopterin]

Specific activity of tyrosine hydroxylase preparation with the cofactor (Tyrosine hydroxylase; 25-45% ammonium sulfate fraction): 4.0 nmole/mg protein (min)
Tyrosine hydroxylase Vmax (Tyrosine hydroxylase; tetrahydrobiopterin = 100): 100%
Specific activity of phenylalanine hydroxylase with the co-factor ([1]; 37°, rat liver enzyme): 1.0 μmol/mg protein per minute
Phenylalanine hydroxylase Vmax [1]: 100%
Tryptophan hydroxylase Vmax (Tryptophan hydroxylase): 100%
Dihydropteridine reductase Vmax [2]: 100%
Dihydrofolate reductase V (bovine liver DHFR): 100%
Structure (SMILES): C[C@H](O)[C@H](O)[C@H]1CNc2nc(N)[nH]c(=O)c2N1 [Tetrahydrobiopterin]
Substrate inhibition of phenylalanine hydroxylase by large amounts of phenylalanine ([1]; in words): large amounts of phenylalanine inhibit phenylalanine hydroxylase
Specific activity of tryptophan hydroxylase with the cofactor (Tryptophan hydroxylase; 37°, crude 30,000xg supernatant): approximately 100 pmol product per milligram protein per minute
Brain penetration [3]: penetrates brain poorly
Stability [4]: unstable
Noradrenaline synthesis in peripheral nerves [5]: nearly double
Striatal dopamine synthesis [5]: nearly double
Symptoms of Parkinson's disease (Parkinson's disease): improve the symptoms of Parkinson's disease
Symptoms of depression (depression): improve the symptoms of depression
Treatment of atypical PKU (atypical PKU): successfully treated

Activity for tyrosine hydroxylase (Tyrosine hydroxylase; in words): active
Activity for phenylalanine hydroxylase ([1]; in words): active
Activity for tryptophan hydroxylase (Tryptophan hydroxylase): active
Structure (SMILES): CCOCC1CNc2nc(N)[nH]c(=O)c2N1 (racemic) [R=C2 H5, (+-)-2-Amino-5,6,7,8-tetrahydro-6-ethoxymethyl-4(3H)-pteridinone]

Phenylalanine hydroxylase Vmax [1]: 79%
Tryptophan hydroxylase Vmax (Tryptophan hydroxylase): 54%
Dihydrofolate reductase V (bovine liver DHFR): 800%
Structure (SMILES): COCC1CNc2nc(N)[nH]c(=O)c2N1 (racemic) [6-Methoxymethyl-tetrahydropterin, (+-)-2-Amino-5,6,7,8-tetrahydro-6-methoxymethyl-4(3H)-pteridinone]

Activity for phenylalanine hydroxylase ([1]; in words): successively less active
Activity for tryptophan hydroxylase (Tryptophan hydroxylase): successively less active
Structure (SMILES): CCCOCC1CNc2nc(N)[nH]c(=O)c2N1 (stereo not drawn) [R=C3 H7]

Structure (SMILES): CCCCOCC1CNc2nc(N)[nH]c(=O)c2N1 (racemic) [R=C4 H9, (+-)-2-Amino-5,6,7,8-tetrahydro-6-n-butoxymethyl-4(3H)-pteridinone]
Specificity for tyrosine hydroxylase (Tyrosine hydroxylase; versus tryptophan and phenylalanine hydroxylases): greatest specificity
Activity for phenylalanine hydroxylase ([1]; in words): successively less active
Activity for tryptophan hydroxylase (Tryptophan hydroxylase): successively less active
